US8377935B2, “Substituted aminopropenyl piperidine or morpholine derivatives as novel inhibitors of histone deacetylase” (Janssen Pharmaceutica N.V., priority 2005, dated 2013)

Experiments:
[1] = biological target: histone deacetylase (HeLa nuclear extracts); test: In vitro assay for inhibition of histone deacetylase (HDAC Fluorescent Activity Assay, Fluor de Lys); format: biochemical; conditions: HeLa nuclear extracts 60 μg/ml, 75 μM Fluor de Lys substrate
Description: The in vitro assay for inhibition of histone deacetylase (see example C.1) measures the inhibition of HDAC enzymatic activity obtained with the compounds of formula (I).
The HDAC Fluorescent Activity Assay/Drug Discovery Kit of Biomol (cat.No: AK-500-0001) was used. The HDAC Fluorescent Activity Assay is based on the Fluor de Lys (Fluorogenic Histone deAcetylase Lysyl) substrate and developer combination. The Fluor de Lys substrate, comprises an acetylated lysine side chain. Deacetylation of the substrate sensitizes the substrate so that, in the second step, treatment with the Fluor de Lys developer produces a fluorophore.
HeLa nuclear extracts (supplier: Biomol) were incubated at 60 μg/ml with 75 μM of substrate. The Fluor de Lys substrate was added in a buffer containing 25 mM Tris, 137 mM. NaCl, 2.7 mM KCl and 1 mM MgCl2.6H2O at pH 7.4. After 30 min, 1 volume of the developer was added. The fluorophore was excited with 355 nm light and the emitted light (450 nm) was be detected on a fluorometric plate reader.
For each experiment, controls (containing HeLa nuclear extract and buffer), a blank incubation (containing buffer but no HeLa nuclear extract) and samples (containing compound dissolved in DMSO and further diluted in buffer and HeLa nuclear extract) were run in parallel. In first instance, compounds were tested at a concentration of 10^−5M. […] All sample were tested 4 times. In each test the blank value was substracted from both the control and the sample values. The control sample represented 100% of substrate deactylation. For each sample the fluorescence was expressed as a percentage of the mean value of the controls. […] Herein the effects of test compounds are expressed as pIC50 (the negative log value of the IC50-value) (see Table F-3).

p21 promoter = test: p21 induction capacity, in vivo method (tumour fluorescence in nude mice); design: key: inactive (no fluorescence measurable); weaker, identical or better than R306465; weaker, identical or better than R306465; weaker, identical or better than R306465; conditions: oral administration, daily during 6 days, 20-40 mpk
Protocol: A first method tests the capacity of compounds to induce p21 as the consequence of HDAC inhibition at the cellular level. […] The reporter gene is a fluorescent protein and the expression of the reporter gene is measured as the amount of fluorescent light emitted (see example C.6.a.). The second method is an in vivo method wherein mice are used for screening the pharmaceutical activity of a compound. The above described stably transformed tumour cells can be administered to mice in an amount sufficient to effect production of a tumour. After the tumour cells had sufficient time to form a tumour, a potentially active compound can be administered to the animals and the effect of said compound On the tumour cells is evaluated by measuring the expression of the reporter gene. […]
A selected clone was injected subcutaneous (10^7 cells/200 μl) into the flank of nude mice and a calliper measurable tumour was obtained after 12 days. […] Tumours were evaluated for fluorescence by the in-house developed Automated Whole Body Imaging System (Fluorescent stereomicroscope type Olympus® SZX12 equipped with a GFP filter and coupled to a CCD camera type IAI® CV-M90 controlled by a software package based on the IMAQ Vision Software from National Instruments®). […]

[2] = system: A2780 ovarian carcinoma cells; test: Determination of antiproliferative activity on A2780 cells (MTT); format: cell-based; conditions: Homo sapiens, 96 h, four days of incubation, read-out: Cellular activity pIC50 (converted)
Protocol: Cellular activity of the compounds of formula (I) was determined on A2780 tumour cells using a colorimetric assay for cell toxicity or survival (Mosmann Tim, Journal of Immunological Methods 65:55-63, 1983)(see example C.2).
All compounds tested were dissolved in DMSO and further dilutions were made in culture medium. Final DMSO concentrations never exceeded 0.1% (v/v) in cell proliferation assays. Controls contained A2780 cells and DMSO without compound and blanks contained DMSO but no cells. MTT was dissolved at 5 mg/ml in PBS. A glycine buffer comprised of 0.1 M glycine and 0.1 M NaCl buffered to pH 10.5 with NaOH (1 N) was prepared (all reagents were from Merck).
The human A2780 ovarian carcinoma cells (a kind gift from Dr. T. C. Hamilton [Fox Chase Cancer Centre, Pennsylvania, USA]) were cultured in RPMI 1640 medium supplemented with 2 mM L-glutamine, 50 μg/ml gentamicin and 10% fetal calf serum. Cells were routinely kept as monolayer cultures at 37° C. in a humidified 5% CO2 atmosphere. Cells were passaged once a week using a trypsin/EDTA solution at a split ratio of 1:40. All media and supplements were obtained from Life Technologies. Cells were free of mycoplasma contamination as determined using the Gen-Probe Mycoplasma Tissue Culture kit (supplier: BioMerieux).
Cells were seeded in NUNC™ 96-well culture plates (Supplier: Life Technologies) and allowed to adhere to the plastic overnight. Densities used for plating were 1500 cells per well in a total volume of 200 μl medium. After cell adhesion to the plates, medium was changed and drugs and/or solvents were added to a final volume of 200 μl. Following four days of incubation, medium was replaced by 200 μl fresh medium and cell density and viability was assessed using an MTT-based assay. To each well, 25 μl MTT solution was added and the cells were further incubated for 2 hours at 37° C. The medium was then carefully aspirated and the blue MTT-formazan product was solubilized by addition of 25 μl glycine buffer followed by 100 μl of DMSO. […] Within an experiment, the results for each experimental condition are the mean of 3 replicate wells. For initial screening purposes, compounds were tested at a single fixed concentration of 10^−6 M. For active compounds, the experiments were repeated to establish full concentration-response curves. For each experiment, controls (containing no drug) and a blank incubation (containing no cells or drugs) were run in parallel. The blank value was subtracted from all control and sample values. For each sample, the mean value for cell growth (in absorbance units) was expressed as a percentage of the mean value for cell growth of the control. […] Herein the effects of test compounds are expressed as pIC50 (the negative log value of the IC50-value)(see Table F-3).

- Enzyme activity pIC50 [1]: 9.0
- IC50 [2]: 0.0251 µM
Compound: O=C(NO)c1cnc(N2CCC(CNC(/C=C/c3ccccc3)CO)CC2)nc1 (stereo not drawn) [Compound 1]
- tumour fluorescence (p21 induction) ranked against R306465 (p21 promoter): better
